Assay results published in US20030175678A1, “Methods for identifying genes regulating desired cell phenotypes” (priority 2001, published 2003).

Legend:
Format in all cases: cell-based
[1] = tested on: C. barkleyi suspension culture; assay: Differential induction of catechin accumulation in Crassula barkleyi suspension culture; conditions: B49 medium, treated seven days after inoculation, sampled for 17 days
Procedure: Differential induction of catechin derivatives in the C. barkleyi suspension culture was performed in 250 mL conical flasks containing 100 mL of a secondary metabolite production medium B49 (Gamborg's B5, with 5% sucrose, and no hormones), inoculated with 16 mL of 14 day old suspension culture. The cultures were incubated under low light conditions (approximately 30 lux) at 25° C. for seven days after inoculation. Cultures were then treated using one of each of the following protocols (untreated cultures were also maintained as controls):
(2) Autoclaved aqueous 2,4-D (1 mg/L final concentration) was added;
(4) Filter-sterilized aqueous DL-phenylalanine (200 mg/L) was added;
(6) Filter-sterilized aqueous zeatin (10 μM) was added;
(7) Filter-sterilized aqueous 1-aminocyclopropane-1-carboxylic acid (10 mg/L final concentration) was added;
(8) Filter-sterilized 24-epibrassinolide (1 mg/L final concentration) was added;
(9) Incubation at a temperature of 16° C.; or (10) High light regime (approximately 160 lux).
(§1) Ten milliliter culture samples were taken at regular intervals for 17 days following the day of subculture to B49 medium. All culture samples were centrifuged for five minutes at 4000 rpm, and the cell residue was freeze-dried. Extraction, sample preparation, and HPLC analysis were performed as described in Example 1.

[2] = tested on: C. fascicularis suspension culture; assay: Differential induction of EGCG in Crassula fascicularis suspension culture (HPLC); conditions: B49 medium, treated on day 7 following subculture
Procedure: Differential induction of catechins in the C. fascicularis suspension culture was performed in 500 mL conical flasks containing 190 mL of either growth medium B105 (modified Gamborg's B5 medium containing 2,4-D (1 mg/L), kinetin (0.1 mg/L), coconut water (100 mL/L), glutamine (10 mM), and 3% sucrose) or a secondary metabolite production medium B49 (Gamborg's B5, 5% sucrose, no hormones), inoculated with 70 mL of 14 day old suspension culture. Cultures were grown for 14 days before harvest and processing. Further cultures grown on production medium B49 were treated using one of each of the following protocols:
(4) A 40 mL aliquot of a day 0 suspension growing on B105 medium was transferred to a 100 mL flask. On day 3, a sterile solution of 5-azacytidine (5-AC) in water was added for a final concentration of 3×10^−5 M, and the resultant mixture was incubated for 11 days. At this point the 40 mL 5-AC-treated culture was subcultured twice before inoculating 190 mL B49 production medium in a 500 mL flask with 70 mL of day 14 suspension. The culture was then treated further according to protocol (2). […]
Lyophilized biomass from 100 mL plant cell culture was extracted three times with 10 mL of boiling aqueous 0.2 M NaH2PO4 solution (total 30 mL). The combined, cooled, extracts were extracted with EtOAc (2×30 mL). The combined EtOAc extracts were then dried under a stream of nitrogen. The samples were dissolved in 50% aqueous acetonitrile at a concentration of 1.0 mg/mL; a 0.1 mL aliquot was transferred into a 0.25 mL glass insert to a 2 mL HPLC vial. The extraction procedure is scalable according to the initial volume of the plant-cell culture used to generate the biomass.
HPLC analyses of compounds in plant cell culture extracts were performed in two systems. System 1 (S1) utilized a Rainin Dynamax SD-200 pumping system, a Varian Dynamax PDA-2 diode array detector, with a Waters XTerra RP 18 (5 μm, 3.0×150 mm) column. The mobile phase was composed from 0.1% acetic acid in H2O (solvent A) and 0.1% acetic acid in acetonitrile (solvent B), at a flow rate of 0.75 mL/min: after maintaining initial conditions (A:B, 95:5) for one minute post-injection, gradient elution was accomplished in a linear fashion over 30 min (to A:B, 40:60). A total of 10 μL of each sample was injected onto the column and eluates were analyzed at a wavelength of 275 nm. System 2 (S2) utilized API-electrospray-LC-MS: a Hewlett Packard series HP1100 with a Waters Xterra RP18 (3.5 μm, 2.1×100 mm) column was used as the inlet for a Micromass Platform-LC, in the positive-ion mode. […] Compounds of interest were detected at 254 nm and as single-charged species via selected-ion monitoring in the mass spectrometer. […]

[3] = tested on: C. dejecta suspension culture; assay: Differential induction of catechin accumulation in Crassula dejecta suspension culture; conditions: cultures grown on B105, added at day 7
Procedure: Differential induction of catechin derivatives in the C. dejecta suspension culture was performed in 250 mL conical flasks containing 100 mL of B105 growth medium or 100 mL of a secondary metabolite production medium B49 (Gamborg's B5, with 5% sucrose, and no hormones), inoculated with 40 mL of 21 day old suspension culture. The cultures were incubated under low light conditions (approximately 30 lux) at 25° C. Cultures were treated using one of each of the following protocols:
(1) B105 growth medium (no additions) used as is;
(3) Filter-sterilized aqueous zeatin (10 μM) was added at day 7 to a culture grown on B105 medium;
(4) B49 production medium (no additions) used as is;
as §1, with “(6) Filter-sterilized clofibrate (0.5 mM final concentration) was added at day 7 to a culture grown on B49 medium. Ten” for “Ten”, “milliliters of” for “milliliter”, “to B105 or” for “to”

SMILES	catechin biosynthesis and EGCG accumulation [1]	EGCG (mg/gdwt) two days after treatment [2]	induction of catechin, gallocatechin, and EGCG [3]
O=C(O)COc1ccc(Cl)cc1Cl [2,4-D, 2,4-dichlorophenoxyacetic acid]	suppressed catechin biosynthesis		
CC(C)[C@@H](C)[C@@H](O)[C@H](O)[C@@H](C)[C@H]1CC[C@H]2[C@@H]3COC(=O)[C@H]4C[C@H](O)[C@H](O)C[C@]4(C)[C@H]3CC[C@]12C [24-epibrassinolide]	induced catechin biosynthesis and EGCG accumulation		
CCOC(=O)C(C)(C)Oc1ccc(Cl)cc1 [Clofibrate]		89 mg/gdwt	
O.O.O.O.O.O.O.O=S(=O)([O-])[O-].[Fe+2] [FeSO4.7H2O]		90 mg/gdwt	
O=C(O)c1cc(O)c(O)c(O)c1 [gallic acid]		82 mg/gdwt	
C/C(=C\CNc1ncnc2[nH]cnc12)CO [zeatin]	induced catechin biosynthesis and EGCG accumulation		induced catechin, gallocatechin, and EGCG
